Assay results reported in ChEMBL document CHEMBL1201862, “PubChem BioAssay data set” (2004).
“And” between values parts separate entries of the source, which are not always exact repeats. Equal entries are not always repeated.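 Assay format: 96-well plates, 48-hour exposure. The concentration for 50% growth inhibition is given as GI50.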 The source made the active and inactive calls. Rule as the data show it: active = GI50 up to about 1.1 µM and inactive = higher.

Legend:
Test in all cases: NCI-60 cell line screen, 48 h
A498 = system: A498
A549 = system: A549
CAKI-1 = system: CAKI-1
CCRF-CEM = system: CCRF-CEM
COLO 205 = system: COLO 205
DLD-1 = system: DLD-1
DMS-114 = system: DMS-114
DMS-273 = system: DMS-273
EKVX = system: EKVX
HCC 2998 = system: HCC 2998
HCT-116 = system: HCT-116
HCT-15 = system: HCT-15
HL-60 = system: HL-60
HOP-18 = system: HOP-18
HOP-62 = system: HOP-62
HOP-92 = system: HOP-92
HT-29 = system: HT-29
IGROV-1 = system: IGROV-1
K562 = system: K562
KM-20L2 = system: KM-20L2
KM12 = system: KM12
LOX IMVI = system: LOX IMVI
M19-MEL = system: M19-MEL
MCF7 = system: MCF7
MOLT-4 = system: MOLT-4
Malme-3M = system: Malme-3M
NCI-H226 = system: NCI-H226
NCI-H23 = system: NCI-H23
NCI-H460 = system: NCI-H460
NCI-H522 = system: NCI-H522
NCI/ADR-RES = system: NCI/ADR-RES
OVCAR-3 = system: OVCAR-3
OVCAR-4 = system: OVCAR-4
OVCAR-5 = system: OVCAR-5
OVCAR-8 = system: OVCAR-8
RPMI-8226 = system: RPMI-8226
RXF 393 = system: RXF 393
SF-268 = system: SF-268
SF-295 = system: SF-295
SF-539 = system: SF-539
SK-MEL-28 = system: SK-MEL-28
SK-MEL-2 = system: SK-MEL-2
SK-MEL-5 = system: SK-MEL-5
SK-OV-3 = system: SK-OV-3
SN12C = system: SN12C
SNB-19 = system: SNB-19
SNB-75 = system: SNB-75
SNB-78 = system: SNB-78
SW-620 = system: SW-620
U-251 = system: U-251
UACC-257 = system: UACC-257
UACC-62 = system: UACC-62
UO-31 = system: UO-31
XF498 = system: XF498
786-0 = system: 786-0
ACHN = system: ACHN
DU-145 = system: DU-145
M14 = system: M14
MDA-MB-231 = system: MDA-MB-231
MDA-MB-435 = system: MDA-MB-435
MDA-N = system: MDA-N
PC-3 = system: PC-3
T47D = system: T47D
TK-10 = system: TK-10
BT-549 = system: BT-549
Hs-578T = system: Hs-578T
SR = system: SR

Measured: GI50

CCCCCCCCCCCCCCCCCCOCC(O)CO (stereo not drawn) [BATILOL]
> 25 µM: HCT-15
inactive: A498 3.61 µM | A549 4.32 µM | CAKI-1 3.57 µM | CCRF-CEM 10.7 µM | COLO 205 > 25 µM | DLD-1 > 25 µM | DMS-114 18 µM | DMS-273 > 5.93 µM | EKVX > 14.1 µM | HCC 2998 12.4 µM | HCT-116 > 25 µM | HL-60 10.5 µM | HOP-62 14 µM | HOP-92 11.7 µM | HT-29 14.5 µM | IGROV-1 13.6 µM | K562 > 22.4 µM | KM-20L2 19.1 µM | KM12 21.6 µM | LOX IMVI > 21.9 µM | M19-MEL 12 µM | MCF7 > 25 µM | MOLT-4 17.2 µM | Malme-3M > 11.1 µM | NCI-H226 > 21.6 µM | NCI-H23 > 25 µM | NCI-H460 > 20.2 µM | NCI-H522 9.18 µM | NCI/ADR-RES > 25 µM | OVCAR-3 > 23.9 µM | OVCAR-4 21.9 µM | OVCAR-5 > 25 µM | OVCAR-8 > 25 µM | RPMI-8226 4.9 µM | RXF 393 16.7 µM | SF-268 > 25 µM | SF-295 18.6 µM | SF-539 > 25 µM | SK-MEL-28 > 25 µM | SK-MEL-2 > 24.2 µM | SK-MEL-5 2.07 µM | SK-OV-3 > 23.5 µM | SN12C > 25 µM | SNB-19 > 25 µM | SNB-75 9.48 µM | SNB-78 > 25 µM | SW-620 > 17 µM | U-251 > 25 µM | UACC-257 > 23.9 µM | UACC-62 21.7 µM | UO-31 12.5 µM | XF498 15.5 µM
active: HOP-18 0.61 µM

Nc1ncnc2c1ncn2C1OC(CO)C(O)C1O (stereo not drawn)
inactive: 786-0 43.3 µM | A549 132 µM | ACHN 40.6 µM | CCRF-CEM 36.7 µM and 34.3 µM | DLD-1 > 373 µM | DMS-114 68.1 µM | DMS-273 103 µM | DU-145 22.9 µM | HCC 2998 34.9 µM and 43.4 µM | HCT-116 106 µM and 58.2 µM | HOP-18 107 µM | HOP-62 61.9 µM and 70.5 µM | KM-20L2 234 µM | LOX IMVI 84.3 µM and 44.2 µM | M14 > 100 µM | M19-MEL 333 µM | MDA-MB-231 > 100 µM | MDA-MB-435 > 100 µM | MDA-N > 100 µM | Malme-3M 274 µM | NCI-H460 22.3 µM | NCI/ADR-RES 117 µM | PC-3 31 µM | RXF 393 104 µM | SF-268 232 µM | SF-539 179 µM | SK-MEL-2 97.1 µM | SN12C 136 µM | SNB-75 117 µM | SNB-78 > 450 µM | SW-620 153 µM | T47D 77.3 µM | TK-10 > 100 µM | XF498 > 450 µM

COC1C(O)C(C)OC(OC2C(Oc3cccc4c(O)c5c(=O)oc6ccc(C)c7c(=O)oc(c34)c5c67)OC(C)C(O)C2O)C1O (stereo not drawn)
active: 786-0 0.91 µM | CCRF-CEM 0.836 µM | DMS-114 0.918 µM | HCT-116 0.731 µM | HOP-92 0.233 µM | K562 0.804 µM | M19-MEL 1.04 µM | MCF7 0.757 µM | MOLT-4 0.488 µM | NCI-H522 0.871 µM | SF-268 0.904 µM | SK-MEL-2 1.03 µM | SR 0.373 µM | SW-620 0.843 µM | T47D 0.968 µM | U-251 0.959 µM | XF498 0.824 µM
inactive: A498 2.04 µM | A549 6.14 µM | ACHN 4.98 µM | BT-549 1.9 µM | COLO 205 3.41 µM | DLD-1 1.26 µM | DMS-273 2.1 µM | DU-145 6.65 µM | EKVX 1.34 µM | HCC 2998 2.16 µM | HL-60 2.38 µM | HOP-18 2.45 µM | HOP-62 1.77 µM | HT-29 2.63 µM | Hs-578T 2.38 µM | IGROV-1 1.87 µM | KM-20L2 2.52 µM | KM12 1.64 µM | LOX IMVI 1.14 µM | M14 4.13 µM | MDA-MB-231 1.67 µM | MDA-MB-435 2.07 µM | MDA-N 2.01 µM | Malme-3M 1.35 µM | NCI-H226 1.35 µM | NCI-H23 1.28 µM | NCI-H460 2.26 µM | NCI/ADR-RES 11.8 µM | OVCAR-3 2.34 µM | OVCAR-4 6.24 µM | OVCAR-5 4.56 µM | OVCAR-8 1.15 µM | PC-3 4.04 µM | RPMI-8226 1.39 µM | RXF 393 1.34 µM | SF-295 1.29 µM | SF-539 1.51 µM | SK-MEL-28 1.6 µM | SK-MEL-5 1.59 µM | SK-OV-3 4.37 µM | SN12C 2.52 µM | SNB-75 2.49 µM | SNB-78 2 µM | TK-10 3.1 µM | UACC-257 2.31 µM | UACC-62 1.17 µM | UO-31 4.59 µM
3.03 µM: HCT-15
